Measurements published in US20250206732A1, “COMPOUNDS AND METHODS FOR THE TARGETED DEGRADATION OF KRAS” (Arvinas Operations, Inc., priority 2022, published 2025).

Target: T1, AsPC-1 HiBiT-KRASG12D (Homo sapiens, UniProt P01116, G12D)
T1 construct: insert the HiBiT tag onto the N-terminus of one or more of the endogenous KRAS alleles; endogenous in cells; host or cells: AsPC-1 (ATCC CRL-1682), CRISPR-Cas9 knock-in clone, one tagged allele
Assay: HiBiT degradation assay (G12D), AsPC-1 HiBiT-KRASG12D cells
Format: cell-based
Details: 24 hours treatment; for Dmax: ASPC1, AsPC-1 HiBiT-KRASG12D cells, maximum degradation observed; for DC50: AsPC-1 HiBiT-KRASG12D cells, HiBiT luminescence
Summary of the method: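 In this degradation format, an engineered AsPC-1 clone with HiBiT fused to the KRAS N-terminus is exposed to compounds for 24 hours, after which remaining tagged protein is quantified by lytic HiBiT luminescence.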

T1 sequence (P01116 1-188 isoform P01116-2 G12D): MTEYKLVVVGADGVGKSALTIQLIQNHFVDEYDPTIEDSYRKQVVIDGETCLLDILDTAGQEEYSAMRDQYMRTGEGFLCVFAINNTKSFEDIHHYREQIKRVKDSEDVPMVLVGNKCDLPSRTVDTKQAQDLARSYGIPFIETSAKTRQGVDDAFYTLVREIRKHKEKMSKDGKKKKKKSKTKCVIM

SMILES	Dmax	DC50
CCc1cccc2cc(O)cc(-c3ncc4c(N5CC6CCC(C5)N6)nc(OC[C@]56CCCN5[C@H](COC(=O)N5CC(Oc7cc([C@H](C(=O)N8C[C@H](O)C[C@H]8C(=O)N[C@@H](C)c8ccc(-c9scnc9C)cc8)C(C)C)on7)C5)CC6)nc4c3F)c12 [Compound 128, [(3S,7aR)-7a-{[(4-{3,8-diazabicyclo[3.2.1]octan-3-yl}-7-(8-ethyl-3-hydroxynaphthalen-1-yl)-8-fluoropyrido[4,3-d]pyrimidin-2-yl)oxy]methyl}-hexahydro-1H-pyrrolizin-3-yl]methyl 3-({5-[(2R)-1-[(2S,4R)-4-hydroxy-2-{[(1S)-1-[4-(4-methyl-1,3-thiazol-5-yl)phenyl]ethyl]carbamoyl}pyrrolidin-1-yl]-3-methyl-1-oxobutan-2-yl]-1,2-oxazol-3-yl}oxy)azetidine-1-carboxylate]	80 to 100%	< 600 nM
CCc1cccc2cc(O)cc(-c3ncc4c(N5CC6CCC(C5)N6)nc(OC[C@]56CCCN5[C@H](COC(=O)N5CC(Oc7cc([C@@H](C(=O)N8C[C@H](O)C[C@H]8C(=O)N[C@@H](C)c8ccc(-c9scnc9C)cc8)C(C)C)on7)C5)CC6)nc4c3F)c12 [Compound 129, [(3S,7aR)-7a-{[(4-{3,8-diazabicyclo[3.2.1]octan-3-yl}-7-(8-ethyl-3-hydroxynaphthalen-1-yl)-8-fluoropyrido[4,3-d]pyrimidin-2-yl)oxy]methyl}-hexahydro-1H-pyrrolizin-3-yl]methyl 3-({5-[(2S)-1-[(2S,4R)-4-hydroxy-2-{[(1S)-1-[4-(4-methyl-1,3-thiazol-5-yl)phenyl]ethyl]carbamoyl}pyrrolidin-1-yl]-3-methyl-1-oxobutan-2-yl]-1,2-oxazol-3-yl}oxy)azetidine-1-carboxylate]	60 to 80%	< 600 nM
CCc1cccc2cc(O)cc(-c3ncc4c(N5CC6CCC(C5)N6)nc(OC[C@]56CCCN5[C@H](COC(=O)N5CCN(c7cc([C@H](C(=O)N8C[C@H](O)C[C@H]8C(=O)N[C@@H](C)c8ccc(-c9scnc9C)cc8)C(C)C)on7)[C@H](C)C5)CC6)nc4c3F)c12 [Compound 130, [(3S,7aR)-7a-{[(4-{3,8-diazabicyclo[3.2.1]octan-3-yl}-7-(8-ethyl-3-hydroxynaphthalen-1-yl)-8-fluoropyrido[4,3-d]pyrimidin-2-yl)oxy]methyl}-hexahydro-1H-pyrrolizin-3-yl]methyl (3R)-4-{5-[(2R)-1-[(2S,4R)-4-hydroxy-2-{[(1S)-1-[4-(4-methyl-1,3-thiazol-5-yl)phenyl]ethyl]carbamoyl}pyrrolidin-1-yl]-3-methyl-1-oxobutan-2-yl]-1,2-oxazol-3-yl}-3-methylpiperazine-1-carboxylate]	80 to 100%	< 600 nM
CCc1cccc2cc(O)cc(-c3ncc4c(N5CC6CCC(C5)N6)nc(OC[C@]56CCCN5[C@H](COC(=O)N5CCN(c7cc([C@@H](C(=O)N8C[C@H](O)C[C@H]8C(=O)N[C@@H](C)c8ccc(-c9scnc9C)cc8)C(C)C)on7)[C@H](C)C5)CC6)nc4c3F)c12 [Compound 131, [(3S,7aR)-7a-{[(4-{3,8-diazabicyclo[3.2.1]octan-3-yl}-7-(8-ethyl-3-hydroxynaphthalen-1-yl)-8-fluoropyrido[4,3-d]pyrimidin-2-yl)oxy]methyl}-hexahydro-1H-pyrrolizin-3-yl]methyl (3R)-4-{5-[(2S)-1-[(2S,4R)-4-hydroxy-2-{[(1S)-1-[4-(4-methyl-1,3-thiazol-5-yl)phenyl]ethyl]carbamoyl}pyrrolidin-1-yl]-3-methyl-1-oxobutan-2-yl]-1,2-oxazol-3-yl}-3-methylpiperazine-1-carboxylate]	< 20%	< 600 nM
CCc1cccc2cc(O)cc(-c3ncc4c(N5CC6CCC(C5)N6)nc(OC[C@]56CCCN5[C@H](COC(=O)N5CCN(c7cc([C@H](C(=O)N8C[C@H](O)C[C@H]8C(=O)N[C@@H](C)c8ccc(-c9scnc9C)cc8)C(C)C)on7)C[C@@H]5C)CC6)nc4c3F)c12 [Compound 132, [(3S,7aR)-7a-{[(4-{3,8-diazabicyclo[3.2.1]octan-3-yl}-7-(8-ethyl-3-hydroxynaphthalen-1-yl)-8-fluoropyrido[4,3-d]pyrimidin-2-yl)oxy]methyl}-hexahydro-1H-pyrrolizin-3-yl]methyl (2S)-4-{5-[(2R)-1-[(2S,4R)-4-hydroxy-2-{[(1S)-1-[4-(4-methyl-1,3-thiazol-5-yl)phenyl]ethyl]carbamoyl}pyrrolidin-1-yl]-3-methyl-1-oxobutan-2-yl]-1,2-oxazol-3-yl}-2-methylpiperazine-1-carboxylate]	80 to 100%	< 600 nM
CCc1cccc2cc(O)cc(-c3ncc4c(N5CC6CCC(C5)N6)nc(OC[C@]56CCCN5[C@H](COC(=O)N5CCN(c7cc([C@@H](C(=O)N8C[C@H](O)C[C@H]8C(=O)N[C@@H](C)c8ccc(-c9scnc9C)cc8)C(C)C)on7)C[C@@H]5C)CC6)nc4c3F)c12 [Compound 133, [(3S,7aR)-7a-{[(4-{3,8-diazabicyclo[3.2.1]octan-3-yl}-7-(8-ethyl-3-hydroxynaphthalen-1-yl)-8-fluoropyrido[4,3-d]pyrimidin-2-yl)oxy]methyl}-hexahydro-1H-pyrrolizin-3-yl]methyl (2S)-4-{5-[(2S)-1-[(2S,4R)-4-hydroxy-2-{[(1S)-1-[4-(4-methyl-1,3-thiazol-5-yl)phenyl]ethyl]carbamoyl}pyrrolidin-1-yl]-3-methyl-1-oxobutan-2-yl]-1,2-oxazol-3-yl}-2-methylpiperazine-1-carboxylate]	< 20%	< 600 nM
CCc1cccc2cc(O)cc(-c3ncc4c(N5CC6CCC(C5)N6)nc(OC[C@]56CCCN5[C@H](COC(=O)N5CC7(C5)CN(c5cc([C@@H](C(=O)N8C[C@H](O)C[C@H]8C(=O)N[C@@H](C)c8ccc(-c9scnc9C)cc8)C(C)C)on5)C7)CC6)nc4c3F)c12 [Compound 144, [(3S,7aR)-7a-{[(4-{3,8-diazabicyclo[3.2.1]octan-3-yl}-7-(8-ethyl-3-hydroxynaphthalen-1-yl)-8-fluoropyrido[4,3-d]pyrimidin-2-yl)oxy]methyl}-hexahydro-1H-pyrrolizin-3-yl]methyl 6-{5-[(2S)-1-[(2S,4R)-4-hydroxy-2-{[(1S)-1-[4-(4-methyl-1,3-thiazol-5-yl)phenyl]ethyl]carbamoyl}pyrrolidin-1-yl]-3-methyl-1-oxobutan-2-yl]-1,2-oxazol-3-yl}-2,6-diazaspiro[3.3]heptane-2-carboxylate]	20 to 60%	600 to 1000 nM
C#Cc1c(F)ccc2cc(O)cc(-c3ncc4c(N5CC6CCC(C5)N6)nc(OCCN5CCC(F)(COc6cc([C@H](C(=O)N7C[C@H](O)C[C@H]7C(=O)N[C@@H](C)c7ccc(-c8scnc8C)cc7)C(C)C)on6)CC5)nc4c3F)c12 [Compound 153, (2S,4R)-1-[(2R)-2-{3-[(1-{2-[(4-{3,8-diazabicyclo[3.2.1]octan-3-yl}-7-(8-ethynyl-7-fluoro-3-hydroxynaphthalen-1-yl)-8-fluoropyrido[4,3-d]pyrimidin-2-yl)oxy]ethyl}-4-fluoropiperidin-4-yl)methoxy]-1,2-oxazol-5-yl}-3-methylbutanoyl]-4-hydroxy-N-[(1S)-1-[4-(4-methyl-1,3-thiazol-5-yl)phenyl]ethyl]pyrrolidine-2-carboxamide]	80 to 100%	< 600 nM
C#Cc1c(F)ccc2cc(O)cc(-c3ncc4c(N5CC6CCC(C5)N6)nc(OCCN5CCC(F)(COc6cc([C@@H](C(=O)N7C[C@H](O)C[C@H]7C(=O)N[C@@H](C)c7ccc(-c8scnc8C)cc7)C(C)C)on6)CC5)nc4c3F)c12 [Compound 154, (2S,4R)-1-[(2S)-2-{3-[(1-{2-[(4-{3,8-diazabicyclo[3.2.1]octan-3-yl}-7-(8-ethynyl-7-fluoro-3-hydroxynaphthalen-1-yl)-8-fluoropyrido[4,3-d]pyrimidin-2-yl)oxy]ethyl}-4-fluoropiperidin-4-yl)methoxy]-1,2-oxazol-5-yl}-3-methylbutanoyl]-4-hydroxy-N-[(1S)-1-[4-(4-methyl-1,3-thiazol-5-yl)phenyl]ethyl]pyrrolidine-2-carboxamide]	80 to 100%	< 600 nM
CCc1cccc2cc(O)cc(-c3ncc4c(N5CC6CCC(C5)N6)nc(OCCN5CCC(F)(CN6CCN(c7cnc(C(=O)N[C@H](C(=O)N8C[C@H](O)C[C@H]8C(=O)N[C@@H](C)c8ccc(-c9scnc9C)cc8)C(C)(C)C)cn7)CC6)CC5)nc4c3F)c12 [Compound 155, 5-{4-[(1-{2-[(4-{3,8-diazabicyclo[3.2.1]octan-3-yl}-7-(8-ethyl-3-hydroxynaphthalen-1-yl)-8-fluoropyrido[4,3-d]pyrimidin-2-yl)oxy]ethyl}-4-fluoropiperidin-4-yl)methyl]piperazin-1-yl}-N-[(2S)-1-[(2S,4R)-4-hydroxy-2-{[(1S)-1-[4-(4-methyl-1,3-thiazol-5-yl)phenyl]ethyl]carbamoyl}pyrrolidin-1-yl]-3,3-dimethyl-1-oxobutan-2-yl]pyrazine-2-carboxamide]	60 to 80%	< 600 nM
C#Cc1c(F)ccc2cc(O)cc(-c3ncc4c(N5CC6CCC(C5)N6)nc(OCCN5CCC(CC6CN(c7cc([C@H](C(=O)N8C[C@H](O)C[C@H]8C(=O)N[C@@H](C)c8ccc(-c9ccnn9C)cc8)C(C)C)on7)C6)CC5)nc4c3F)c12 [Compound 156, (2S,4R)-1-[(2R)-2-(3-{3-[(1-{2-[(4-{3,8-diazabicyclo[3.2.1]octan-3-yl}-7-(8-ethynyl-7-fluoro-3-hydroxynaphthalen-1-yl)-8-fluoropyrido[4,3-d]pyrimidin-2-yl)oxy]ethyl}piperidin-4-yl)methyl]azetidin-1-yl}-1,2-oxazol-5-yl)-3-methylbutanoyl]-4-hydroxy-N-[(1S)-1-[4-(1-methyl-1H-pyrazol-5-yl)phenyl]ethyl]pyrrolidine-2-carboxamide]	80 to 100%	< 600 nM
